# Measurements from ChEMBL document CHEMBL1795250, “Synthesis and base-pairing properties of C-nucleotides having 1-substituted 1H-1,2,3-triazoles” (Bioorg Med Chem Lett, 2009).
# What was measured:
# Assay type in all cases: nucleic-acid assay
# [1] = system: Nucleic Acid; experiment: Stabilization of 5'-AGAGAGAAAGAAAAA-3' ssDNA sequence assessed as melting temperature at pH7 using 100 mM NaCl
# [2] = system: Nucleic Acid; experiment: Stabilization of 5'-AGAGAGAGAGAAAAA-3' ssDNA sequence assessed as melting temperature at pH7 using 100 mM NaCl
# [3] = system: Nucleic Acid; experiment: Stabilization of 5'-AGAGAGATAGAAAAA-3' ssDNA sequence assessed as melting temperature at pH7 using 100 mM NaCl
# [4] = system: Nucleic Acid; experiment: Stabilization of 5'-AGAGAGACAGAAAAA-3' ssDNA sequence assessed as melting temperature at pH7 using 100 mM NaCl
Compound,Tm [1] [°C],Tm [2] [°C],Tm [3] [°C],Tm [4] [°C]
Cc1cn([C@H]2C[C@H](OP(=O)(O)OC[C@H]3O[C@@H](n4cc(C)c(=O)[nH]c4=O)C[C@@H]3OP(=O)(O)OC[C@H]3O[C@@H](n4cc(C)c(N)nc4=O)C[C@@H]3OP(=O)(O)OC[C@H]3O[C@@H](n4cc(C)c(=O)[nH]c4=O)C[C@@H]3OP(=O)(O)OC[C@H]3O[C@@H](n4cc(C)c(N)nc4=O)C[C@@H]3OP(=O)(O)OC[C@H]3O[C@@H](n4cc(C)c(=O)[nH]c4=O)C[C@@H]3O)[C@@H](COP(=O)(O)O[C@H]3C[C@H](n4cc(C)c(=O)[nH]c4=O)O[C@@H]3COP(=O)(O)O[C@H]3C[C@H](c4cn(-c5ccc(C(=O)O)cc5)nn4)O[C@@H]3COP(=O)(O)O[C@H]3C[C@H](n4cc(C)c(=O)[nH]c4=O)O[C@@H]3COP(=O)(O)O[C@H]3C[C@H](n4cc(C)c(N)nc4=O)O[C@@H]3COP(=O)(O)O[C@H]3C[C@H](n4cc(C)c(=O)[nH]c4=O)O[C@@H]3COP(=O)(O)O[C@H]3C[C@H](n4cc(C)c(=O)[nH]c4=O)O[C@@H]3COP(=O)(O)O[C@H]3C[C@H](n4cc(C)c(=O)[nH]c4=O)O[C@@H]3COP(=O)(O)O[C@H]3C[C@H](n4cc(C)c(=O)[nH]c4=O)O[C@@H]3COP(=O)(O)O[C@H]3C[C@H](n4cc(C)c(=O)[nH]c4=O)O[C@@H]3CO)O2)c(=O)nc1N,33,38,33,33
Cc1cn([C@H]2C[C@H](OP(=O)(O)OC[C@H]3O[C@@H](n4cc(C)c(=O)[nH]c4=O)C[C@@H]3OP(=O)(O)OC[C@H]3O[C@@H](n4cc(C)c(N)nc4=O)C[C@@H]3OP(=O)(O)OC[C@H]3O[C@@H](n4cc(C)c(=O)[nH]c4=O)C[C@@H]3OP(=O)(O)OC[C@H]3O[C@@H](n4cc(C)c(N)nc4=O)C[C@@H]3OP(=O)(O)OC[C@H]3O[C@@H](n4cc(C)c(=O)[nH]c4=O)C[C@@H]3O)[C@@H](COP(=O)(O)O[C@H]3C[C@H](n4cc(C)c(=O)[nH]c4=O)O[C@@H]3COP(=O)(O)O[C@H]3C[C@H](c4cn(C5CCCCC5)nn4)O[C@@H]3COP(=O)(O)O[C@H]3C[C@H](n4cc(C)c(=O)[nH]c4=O)O[C@@H]3COP(=O)(O)O[C@H]3C[C@H](n4cc(C)c(N)nc4=O)O[C@@H]3COP(=O)(O)O[C@H]3C[C@H](n4cc(C)c(=O)[nH]c4=O)O[C@@H]3COP(=O)(O)O[C@H]3C[C@H](n4cc(C)c(=O)[nH]c4=O)O[C@@H]3COP(=O)(O)O[C@H]3C[C@H](n4cc(C)c(=O)[nH]c4=O)O[C@@H]3COP(=O)(O)O[C@H]3C[C@H](n4cc(C)c(=O)[nH]c4=O)O[C@@H]3COP(=O)(O)O[C@H]3C[C@H](n4cc(C)c(=O)[nH]c4=O)O[C@@H]3CO)O2)c(=O)nc1N,34,37,33,34
Cc1cn([C@H]2C[C@H](OP(=O)(O)OC[C@H]3O[C@@H](n4cc(C)c(=O)[nH]c4=O)C[C@@H]3OP(=O)(O)OC[C@H]3O[C@@H](n4cc(C)c(N)nc4=O)C[C@@H]3OP(=O)(O)OC[C@H]3O[C@@H](n4cc(C)c(=O)[nH]c4=O)C[C@@H]3OP(=O)(O)OC[C@H]3O[C@@H](n4cc(C)c(N)nc4=O)C[C@@H]3OP(=O)(O)OC[C@H]3O[C@@H](n4cc(C)c(=O)[nH]c4=O)C[C@@H]3O)[C@@H](COP(=O)(O)O[C@H]3C[C@H](n4cc(C)c(=O)[nH]c4=O)O[C@@H]3COP(=O)(O)O[C@H]3C[C@H](c4cn(CSc5ccccc5)nn4)O[C@@H]3COP(=O)(O)O[C@H]3C[C@H](n4cc(C)c(=O)[nH]c4=O)O[C@@H]3COP(=O)(O)O[C@H]3C[C@H](n4cc(C)c(N)nc4=O)O[C@@H]3COP(=O)(O)O[C@H]3C[C@H](n4cc(C)c(=O)[nH]c4=O)O[C@@H]3COP(=O)(O)O[C@H]3C[C@H](n4cc(C)c(=O)[nH]c4=O)O[C@@H]3COP(=O)(O)O[C@H]3C[C@H](n4cc(C)c(=O)[nH]c4=O)O[C@@H]3COP(=O)(O)O[C@H]3C[C@H](n4cc(C)c(=O)[nH]c4=O)O[C@@H]3COP(=O)(O)O[C@H]3C[C@H](n4cc(C)c(=O)[nH]c4=O)O[C@@H]3CO)O2)c(=O)nc1N,37,40,40,38
Cc1cn([C@H]2C[C@H](OP(=O)(O)OC[C@H]3O[C@@H](n4cc(C)c(=O)[nH]c4=O)C[C@@H]3OP(=O)(O)OC[C@H]3O[C@@H](n4cc(C)c(N)nc4=O)C[C@@H]3OP(=O)(O)OC[C@H]3O[C@@H](n4cc(C)c(=O)[nH]c4=O)C[C@@H]3OP(=O)(O)OC[C@H]3O[C@@H](n4cc(C)c(N)nc4=O)C[C@@H]3OP(=O)(O)OC[C@H]3O[C@@H](n4cc(C)c(=O)[nH]c4=O)C[C@@H]3O)[C@@H](COP(=O)(O)O[C@H]3C[C@H](n4cc(C)c(=O)[nH]c4=O)O[C@@H]3COP(=O)(O)O[C@H]3C[C@H](c4cn(Cc5ccccc5)nn4)O[C@@H]3COP(=O)(O)O[C@H]3C[C@H](n4cc(C)c(=O)[nH]c4=O)O[C@@H]3COP(=O)(O)O[C@H]3C[C@H](n4cc(C)c(N)nc4=O)O[C@@H]3COP(=O)(O)O[C@H]3C[C@H](n4cc(C)c(=O)[nH]c4=O)O[C@@H]3COP(=O)(O)O[C@H]3C[C@H](n4cc(C)c(=O)[nH]c4=O)O[C@@H]3COP(=O)(O)O[C@H]3C[C@H](n4cc(C)c(=O)[nH]c4=O)O[C@@H]3COP(=O)(O)O[C@H]3C[C@H](n4cc(C)c(=O)[nH]c4=O)O[C@@H]3COP(=O)(O)O[C@H]3C[C@H](n4cc(C)c(=O)[nH]c4=O)O[C@@H]3CO)O2)c(=O)nc1N,32,38,33,34
Cc1cn([C@H]2C[C@H](OP(=O)(O)OC[C@H]3O[C@@H](n4cc(C)c(=O)[nH]c4=O)C[C@@H]3OP(=O)(O)OC[C@H]3O[C@@H](n4cc(C)c(N)nc4=O)C[C@@H]3OP(=O)(O)OC[C@H]3O[C@@H](n4cc(C)c(=O)[nH]c4=O)C[C@@H]3OP(=O)(O)OC[C@H]3O[C@@H](n4cc(C)c(N)nc4=O)C[C@@H]3OP(=O)(O)OC[C@H]3O[C@@H](n4cc(C)c(=O)[nH]c4=O)C[C@@H]3O)[C@@H](COP(=O)(O)O[C@H]3C[C@H](n4cc(C)c(=O)[nH]c4=O)O[C@@H]3COP(=O)(O)O[C@H]3C[C@H](c4cn(CCCCCCCCCCO)nn4)O[C@@H]3COP(=O)(O)O[C@H]3C[C@H](n4cc(C)c(=O)[nH]c4=O)O[C@@H]3COP(=O)(O)O[C@H]3C[C@H](n4cc(C)c(N)nc4=O)O[C@@H]3COP(=O)(O)O[C@H]3C[C@H](n4cc(C)c(=O)[nH]c4=O)O[C@@H]3COP(=O)(O)O[C@H]3C[C@H](n4cc(C)c(=O)[nH]c4=O)O[C@@H]3COP(=O)(O)O[C@H]3C[C@H](n4cc(C)c(=O)[nH]c4=O)O[C@@H]3COP(=O)(O)O[C@H]3C[C@H](n4cc(C)c(=O)[nH]c4=O)O[C@@H]3COP(=O)(O)O[C@H]3C[C@H](n4cc(C)c(=O)[nH]c4=O)O[C@@H]3CO)O2)c(=O)nc1N,35,39,39,39
Cc1cn([C@H]2C[C@H](OP(=O)(O)OC[C@H]3O[C@@H](n4cc(C)c(=O)[nH]c4=O)C[C@@H]3OP(=O)(O)OC[C@H]3O[C@@H](n4cc(C)c(N)nc4=O)C[C@@H]3OP(=O)(O)OC[C@H]3O[C@@H](n4cc(C)c(=O)[nH]c4=O)C[C@@H]3OP(=O)(O)OC[C@H]3O[C@@H](n4cc(C)c(N)nc4=O)C[C@@H]3OP(=O)(O)OC[C@H]3O[C@@H](n4cc(C)c(=O)[nH]c4=O)C[C@@H]3O)[C@@H](COP(=O)(O)O[C@H]3C[C@H](n4cc(C)c(=O)[nH]c4=O)O[C@@H]3COP(=O)(O)O[C@H]3C[C@H](c4cn(C56CC7CC(CC(C7)C5)C6)nn4)O[C@@H]3COP(=O)(O)O[C@H]3C[C@H](n4cc(C)c(=O)[nH]c4=O)O[C@@H]3COP(=O)(O)O[C@H]3C[C@H](n4cc(C)c(N)nc4=O)O[C@@H]3COP(=O)(O)O[C@H]3C[C@H](n4cc(C)c(=O)[nH]c4=O)O[C@@H]3COP(=O)(O)O[C@H]3C[C@H](n4cc(C)c(=O)[nH]c4=O)O[C@@H]3COP(=O)(O)O[C@H]3C[C@H](n4cc(C)c(=O)[nH]c4=O)O[C@@H]3COP(=O)(O)O[C@H]3C[C@H](n4cc(C)c(=O)[nH]c4=O)O[C@@H]3COP(=O)(O)O[C@H]3C[C@H](n4cc(C)c(=O)[nH]c4=O)O[C@@H]3CO)O2)c(=O)nc1N,30,37,34,34
C#C[C@H]1C[C@H](OP(=O)(O)OC[C@H]2O[C@@H](n3cc(C)c(=O)[nH]c3=O)C[C@@H]2OP(=O)(O)OC[C@H]2O[C@@H](n3cc(C)c(N)nc3=O)C[C@@H]2OP(=O)(O)OC[C@H]2O[C@@H](n3cc(C)c(=O)[nH]c3=O)C[C@@H]2OP(=O)(O)OC[C@H]2O[C@@H](n3cc(C)c(N)nc3=O)C[C@@H]2OP(=O)(O)OC[C@H]2O[C@@H](n3cc(C)c(=O)[nH]c3=O)C[C@@H]2OP(=O)(O)OC[C@H]2O[C@@H](n3cc(C)c(N)nc3=O)C[C@@H]2OP(=O)(O)OC[C@H]2O[C@@H](n3cc(C)c(=O)[nH]c3=O)C[C@@H]2O)[C@@H](COP(=O)(O)O[C@H]2C[C@H](n3cc(C)c(=O)[nH]c3=O)O[C@@H]2COP(=O)(O)O[C@H]2C[C@H](n3cc(C)c(N)nc3=O)O[C@@H]2COP(=O)(O)O[C@H]2C[C@H](n3cc(C)c(=O)[nH]c3=O)O[C@@H]2COP(=O)(O)O[C@H]2C[C@H](n3cc(C)c(=O)[nH]c3=O)O[C@@H]2COP(=O)(O)O[C@H]2C[C@H](n3cc(C)c(=O)[nH]c3=O)O[C@@H]2COP(=O)(O)O[C@H]2C[C@H](n3cc(C)c(=O)[nH]c3=O)O[C@@H]2COP(=O)(O)O[C@H]2C[C@H](n3cc(C)c(=O)[nH]c3=O)O[C@@H]2CO)O1,32,32,31,29
